Our source for the IC50 values is patent US9266878B2, “Phosphatidylinositol 3-kinase inhibitors” (Gilead Calistoga LLC, priority 2012, dated 2016).

Holding throughout (assay): Enzymatic activity of PI3K isoforms, TR-FRET assay (PIP3 formation)
Holding throughout (format): biochemical
(TR-FRET usually uses a lanthanide donor and a delayed reading to cut background.)

One experiment addresses PI3Kα (Homo sapiens (Human), UniProt P42336). The gist of the method:
(§1)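 After 30 min at 25° C, reactions were quenched with 10 mM EDTA plus 10 nM labeled-PIP3 and 35 nM Europium-GRP-1, and TR-FRET was read (Ex 340, Em 615/665 nm). Enzymes were purified recombinant heterodimers; product PIP3 competes off the labeled tracer. Values given as IC50, nM.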

Another experiment deals with PI3Kδ (Homo sapiens (Human), UniProt O00329). The settings on record: bound given in nM. In short, it runs like this: as §1
A further experiment concerns the target PI3Kγ (Homo sapiens (Human), UniProt P48736). The gist of the method:
(§2)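 IC50 (nM) reflects inhibition of PIP3 formation by purified recombinant heterodimeric PI3K, measured as loss of TR-FRET signal. The read-out comes from competition between enzyme-made PIP3 and labelled PIP3 for binding to the GRP-1 pleckstrin homology domain.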

The target of a further experiment is PI3Kβ (Homo sapiens (Human), UniProt P42338). The gist of the method: as §2
Chain of PI3Kβ (P42338 whole entry): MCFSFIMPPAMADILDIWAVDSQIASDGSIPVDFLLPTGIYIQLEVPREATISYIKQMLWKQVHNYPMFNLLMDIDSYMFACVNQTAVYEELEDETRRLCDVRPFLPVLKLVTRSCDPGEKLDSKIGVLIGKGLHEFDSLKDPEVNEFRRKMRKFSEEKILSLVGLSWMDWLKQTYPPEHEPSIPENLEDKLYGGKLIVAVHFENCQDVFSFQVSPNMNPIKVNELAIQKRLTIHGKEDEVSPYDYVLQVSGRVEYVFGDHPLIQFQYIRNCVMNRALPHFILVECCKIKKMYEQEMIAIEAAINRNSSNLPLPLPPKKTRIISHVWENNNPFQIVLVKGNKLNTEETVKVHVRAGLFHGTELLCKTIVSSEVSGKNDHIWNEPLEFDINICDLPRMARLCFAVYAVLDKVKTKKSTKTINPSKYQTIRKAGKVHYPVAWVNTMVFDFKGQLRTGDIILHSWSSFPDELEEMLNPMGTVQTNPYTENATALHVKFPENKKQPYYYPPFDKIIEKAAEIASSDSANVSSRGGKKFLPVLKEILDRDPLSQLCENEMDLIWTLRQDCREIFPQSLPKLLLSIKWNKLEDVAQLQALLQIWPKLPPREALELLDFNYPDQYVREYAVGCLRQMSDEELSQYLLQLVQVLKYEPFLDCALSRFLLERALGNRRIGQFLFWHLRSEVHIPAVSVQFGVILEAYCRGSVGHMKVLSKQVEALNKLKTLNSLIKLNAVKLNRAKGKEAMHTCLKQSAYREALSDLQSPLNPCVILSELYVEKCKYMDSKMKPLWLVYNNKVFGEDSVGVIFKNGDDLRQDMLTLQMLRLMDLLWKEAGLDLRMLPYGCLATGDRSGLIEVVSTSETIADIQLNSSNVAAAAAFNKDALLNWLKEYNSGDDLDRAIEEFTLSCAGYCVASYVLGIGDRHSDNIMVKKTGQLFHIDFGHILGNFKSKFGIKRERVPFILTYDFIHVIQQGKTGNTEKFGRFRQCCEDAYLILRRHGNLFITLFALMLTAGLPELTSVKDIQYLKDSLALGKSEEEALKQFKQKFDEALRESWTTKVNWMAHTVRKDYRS
Chain of PI3Kβ (P27986 whole entry partner): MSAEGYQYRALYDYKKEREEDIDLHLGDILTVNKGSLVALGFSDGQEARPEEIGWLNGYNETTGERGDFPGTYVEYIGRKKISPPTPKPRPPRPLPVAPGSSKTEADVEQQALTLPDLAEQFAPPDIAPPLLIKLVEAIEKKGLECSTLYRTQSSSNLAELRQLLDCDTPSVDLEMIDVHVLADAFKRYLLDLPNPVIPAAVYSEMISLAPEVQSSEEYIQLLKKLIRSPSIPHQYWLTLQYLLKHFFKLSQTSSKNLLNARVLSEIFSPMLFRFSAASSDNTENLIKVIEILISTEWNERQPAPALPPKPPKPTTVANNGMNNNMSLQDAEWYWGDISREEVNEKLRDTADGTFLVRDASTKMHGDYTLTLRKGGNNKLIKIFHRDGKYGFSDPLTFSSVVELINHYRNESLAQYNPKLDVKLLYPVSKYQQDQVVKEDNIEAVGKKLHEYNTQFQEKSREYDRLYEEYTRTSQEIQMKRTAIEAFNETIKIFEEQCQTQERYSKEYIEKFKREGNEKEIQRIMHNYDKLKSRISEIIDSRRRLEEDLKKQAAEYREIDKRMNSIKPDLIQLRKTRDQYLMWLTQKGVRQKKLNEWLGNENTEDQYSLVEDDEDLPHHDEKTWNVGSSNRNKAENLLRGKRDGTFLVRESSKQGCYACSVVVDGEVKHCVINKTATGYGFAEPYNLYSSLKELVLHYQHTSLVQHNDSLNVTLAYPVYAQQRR

Chain of PI3Kα (P42336 whole entry): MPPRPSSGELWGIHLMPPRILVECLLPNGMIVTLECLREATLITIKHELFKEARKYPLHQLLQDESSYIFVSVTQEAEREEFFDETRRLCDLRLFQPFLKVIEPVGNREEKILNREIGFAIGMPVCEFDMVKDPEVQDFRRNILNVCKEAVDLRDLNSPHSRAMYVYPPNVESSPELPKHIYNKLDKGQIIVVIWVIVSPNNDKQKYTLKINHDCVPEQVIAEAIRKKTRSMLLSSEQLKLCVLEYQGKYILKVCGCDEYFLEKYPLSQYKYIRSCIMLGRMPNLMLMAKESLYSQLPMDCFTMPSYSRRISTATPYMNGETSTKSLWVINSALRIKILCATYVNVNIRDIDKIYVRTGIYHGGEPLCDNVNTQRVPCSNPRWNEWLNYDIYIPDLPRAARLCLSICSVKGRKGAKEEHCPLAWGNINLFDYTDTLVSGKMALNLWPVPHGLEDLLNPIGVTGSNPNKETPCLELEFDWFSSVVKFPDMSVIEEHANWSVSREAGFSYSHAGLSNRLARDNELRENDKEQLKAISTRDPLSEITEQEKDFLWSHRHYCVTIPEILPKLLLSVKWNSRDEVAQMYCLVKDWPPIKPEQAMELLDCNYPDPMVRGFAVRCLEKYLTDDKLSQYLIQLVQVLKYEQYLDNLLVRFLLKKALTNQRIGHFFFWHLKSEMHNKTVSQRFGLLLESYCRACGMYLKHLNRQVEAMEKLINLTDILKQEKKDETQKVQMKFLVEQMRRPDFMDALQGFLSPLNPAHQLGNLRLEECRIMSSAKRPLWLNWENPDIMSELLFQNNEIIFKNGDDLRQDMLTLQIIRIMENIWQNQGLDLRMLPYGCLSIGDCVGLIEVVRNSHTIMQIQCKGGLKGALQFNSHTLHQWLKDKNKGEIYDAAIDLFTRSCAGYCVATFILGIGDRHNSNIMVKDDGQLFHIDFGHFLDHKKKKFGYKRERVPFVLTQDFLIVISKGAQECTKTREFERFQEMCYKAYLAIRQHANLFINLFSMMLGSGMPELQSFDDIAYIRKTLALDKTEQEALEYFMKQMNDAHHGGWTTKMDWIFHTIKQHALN
Chain of PI3Kα (P27986 whole entry partner): as the sequence (P27986 whole entry partner) above
Chain of PI3Kδ (O00329 whole entry): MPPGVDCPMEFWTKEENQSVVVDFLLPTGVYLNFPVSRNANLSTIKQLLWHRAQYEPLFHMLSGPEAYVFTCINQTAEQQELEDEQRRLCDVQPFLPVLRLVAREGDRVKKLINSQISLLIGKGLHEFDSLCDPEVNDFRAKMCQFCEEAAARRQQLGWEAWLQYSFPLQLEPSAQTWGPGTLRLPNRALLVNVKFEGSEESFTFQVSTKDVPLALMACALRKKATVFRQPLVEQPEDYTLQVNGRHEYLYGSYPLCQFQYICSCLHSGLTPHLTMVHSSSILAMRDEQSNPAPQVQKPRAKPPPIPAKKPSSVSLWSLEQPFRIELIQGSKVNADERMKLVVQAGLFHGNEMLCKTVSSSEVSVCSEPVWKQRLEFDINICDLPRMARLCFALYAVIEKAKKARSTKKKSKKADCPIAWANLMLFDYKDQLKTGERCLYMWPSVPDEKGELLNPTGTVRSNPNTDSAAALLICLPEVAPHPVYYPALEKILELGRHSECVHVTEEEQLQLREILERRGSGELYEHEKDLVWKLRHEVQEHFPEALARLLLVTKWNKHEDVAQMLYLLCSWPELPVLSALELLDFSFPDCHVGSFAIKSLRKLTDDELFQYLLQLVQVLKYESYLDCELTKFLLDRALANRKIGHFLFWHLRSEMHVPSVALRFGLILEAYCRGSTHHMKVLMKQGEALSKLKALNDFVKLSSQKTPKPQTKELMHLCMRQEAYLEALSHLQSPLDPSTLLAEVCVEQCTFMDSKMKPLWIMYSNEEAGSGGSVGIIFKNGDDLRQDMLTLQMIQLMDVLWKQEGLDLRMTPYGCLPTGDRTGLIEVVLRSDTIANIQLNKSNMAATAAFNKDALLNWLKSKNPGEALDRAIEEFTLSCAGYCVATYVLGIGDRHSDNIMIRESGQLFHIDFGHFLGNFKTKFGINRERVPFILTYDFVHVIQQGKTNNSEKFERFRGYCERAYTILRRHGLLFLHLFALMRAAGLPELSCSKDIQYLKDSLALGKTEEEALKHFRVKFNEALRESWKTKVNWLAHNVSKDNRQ
Chain of PI3Kδ (P27986 whole entry partner): as the sequence (P27986 whole entry partner) above

Usually IC50 stands for the concentration that inhibits the measured activity by half. Lower therefore signals higher potency. For the compound `CC[C@H](Nc1ncnc(N)c1C#Cc1cnccn1)c1nc2cccc(C)c2c(=O)n1-c1cc(F)cc(F)c1` [Compound 108a, (S)-2-(1-((6-amino-5-(pyrazin-2-ylethynyl)pyrimidin-4-yl)amino)propyl)-3-(3,5-difluorophenyl)-5-methylquinazolin-4(3H)-one], the IC50 is > 1 µM at PI3Kα (bound given in uM), < 100 nM at PI3Kδ, > 1 µM on PI3Kγ (bound given in uM) and > 1 µM at PI3Kβ (bound given in uM).
Consider `C[C@H](Nc1ncnc(N)c1C#Cc1ccc(F)cn1)c1nc2cccc(C(F)(F)F)c2c(=O)n1-c1ccccc1` [Compound 68a, (S)-2-(1-((6-amino-5-((5-fluoropyridin-2-yl)ethynyl)pyrimidin-4-yl)amino)ethyl)-3-phenyl-5-(trifluoromethyl)quinazolin-4(3H)-one], for which the IC50 against PI3Kα (bound given in uM) was > 1 µM; against PI3Kδ, < 100 nM; on PI3Kγ (bound given in uM), > 1 µM; against PI3Kβ (bound given in uM), > 1 µM.
On to `C[C@H](Nc1ncnc(N)c1C#Cc1ccc(F)cn1)c1nc2cccc(C(F)F)c2c(=O)n1-c1cccc(C#N)c1` [Compound 70a, (S)-3-(2-(1-((6-amino-5-((5-fluoropyridin-2-yl)ethynyl)pyrimidin-4-yl)amino)ethyl)-5-(difluoromethyl)-4-oxoquinazolin-3(4H)-yl)benzonitrile], for which the IC50 is > 1 µM at PI3Kα (bound given in uM), < 100 nM on PI3Kδ, > 1 µM at PI3Kγ (bound given in uM) and > 1 µM against PI3Kβ (bound given in uM).
Regarding `C[C@H](Nc1ncnc(N)c1C#Cc1ccc(F)cn1)c1nc2ccc(F)cc2c(=O)n1-c1ccccc1` [Compound 90a, (S)-2-(1-((6-amino-5-((5-fluoropyridin-2-yl)ethynyl)pyrimidin-4-yl)amino)ethyl)-6-fluoro-3-phenylquinazolin-4(3H)-one], the IC50 on PI3Kα (bound given in uM) was > 1 µM; against PI3Kδ it was < 100 nM; on PI3Kγ (bound given in uM), > 1 µM; on PI3Kβ (bound given in uM), > 1 µM.
Regarding `C[C@H](Nc1ncnc(N)c1C#Cc1cnccn1)c1nc2cccc(Cl)c2c(=O)n1-c1cccc(C#N)c1` [Compound 93a, (S)-3-(2-(1-((6-amino-5-(pyrazin-2-ylethynyl)pyrimidin-4-yl)amino)ethyl)-5-chloro-4-oxoquinazolin-3(4H)-yl)benzonitrile], the IC50 is > 1 µM on PI3Kα (bound given in uM), < 100 nM against PI3Kδ, > 1 µM on PI3Kγ (bound given in uM) and > 1 µM against PI3Kβ (bound given in uM).
On to `C[C@H](Nc1ncnc(N)c1C#Cc1ccccn1)c1nc2cccc(Cl)c2c(=O)n1-c1cc(F)cc(F)c1` [Compound 45a, (S)-2-(1-(6-amino-5-(pyridin-2-ylethynyl)pyrimidin-4-ylamino)ethyl)-5-chloro-3-(3,5-difluorophenyl)quinazolin-4(3H)-one], for which the IC50 was > 1 µM on PI3Kα (bound given in uM), < 100 nM at PI3Kδ, > 1 µM against PI3Kγ (bound given in uM) and > 1 µM against PI3Kβ (bound given in uM).
Take `C[C@H](Nc1ncnc(N)c1C#Cc1cnccn1)c1nc2cccc(C(F)F)c2c(=O)n1-c1cccc(C#N)c1` [Compound 71a, (S)-3-(2-(1-((6-amino-5-(pyrazin-2-ylethynyl)pyrimidin-4-yl)amino)ethyl)-5-(difluoromethyl)-4-oxoquinazolin-3(4H)-yl)benzonitrile]: the IC50 at PI3Kα (bound given in uM) was > 1 µM; on PI3Kδ, < 100 nM; against PI3Kγ (bound given in uM), > 1 µM; against PI3Kβ (bound given in uM), > 1 µM.
With `C[C@H](Nc1ncnc(N)c1C#Cc1cncnc1)c1nc2cccc(Cl)c2c(=O)n1-c1cc(F)cc(F)c1` [Compound 41a, (S)-2-(1-(6-amino-5-(pyrimidin-5-ylethynyl)pyrimidin-4-ylamino)ethyl)-5-chloro-3-(3,5-difluorophenyl)quinazolin-4(3H)-one], the IC50 against PI3Kα (bound given in uM) is > 1 µM; at PI3Kδ, < 100 nM; on PI3Kγ (bound given in uM) it was > 1 µM; on PI3Kβ (bound given in uM) it was > 1 µM.
In the case of `C[C@H](Nc1ncnc(N)c1C#Cc1ccc(C(=O)O)cn1)c1nc2cccc(Cl)c2c(=O)n1-c1ccccc1` [Compound 138a, (S)-6-((4-amino-6-((1-(5-chloro-4-oxo-3-phenyl-3,4-dihydroquinazolin-2-yl)ethyl)amino)pyrimidin-5-yl)ethynyl)nicotinic acid], the IC50 on PI3Kα (bound given in uM) is > 1 µM; on PI3Kδ it was < 100 nM; against PI3Kγ (bound given in uM) it was > 1 µM; on PI3Kβ (bound given in uM), > 1 µM.
For the compound `COc1cc(F)cc(C#Cc2c(N)ncnc2N[C@@H](C)c2nc3cccc(F)c3c(=O)n2-c2ccccc2)c1` [Compound 65a, (S)-2-(1-((6-amino-5-((3-fluoro-5-methoxyphenyl)ethynyl)pyrimidin-4-yl)amino)ethyl)-5-fluoro-3-phenylquinazolin-4(3H)-one], the IC50 at PI3Kα (bound given in uM) is > 1 µM; on PI3Kδ, < 100 nM; at PI3Kγ (bound given in uM), > 1 µM; at PI3Kβ (bound given in uM), > 1 µM.
As for `Cc1ccc(Cl)c2c(=O)n(-c3ccccc3)c([C@H](C)Nc3ncnc(N)c3C#Cc3ccc(F)cn3)nc12` [Compound 53a, (S)-2-(1-((6-amino-5-((5-fluoropyridin-2-yl)ethynyl)pyrimidin-4-yl)amino)ethyl)-5-chloro-8-methyl-3-phenylquinazolin-4(3H)-one], the half-inhibitory concentration (IC50) was > 1 µM at PI3Kα (bound given in uM), < 100 nM against PI3Kδ, > 1 µM on PI3Kγ (bound given in uM) and > 1 µM against PI3Kβ (bound given in uM).
Turning to `C[C@H](Nc1ncnc(N)c1C#Cc1cnccn1)c1nc2cccc(S(C)(=O)=O)c2c(=O)n1-c1ccccc1` [Compound 113a, (S)-2-(1-((6-amino-5-(pyrazin-2-ylethynyl)pyrimidin-4-yl)amino)ethyl)-5-(methylsulfonyl)-3-phenylquinazolin-4(3H)-one], the IC50 at PI3Kα (bound given in uM) is > 1 µM; on PI3Kδ, < 100 nM; against PI3Kγ (bound given in uM), > 1 µM; against PI3Kβ (bound given in uM), > 1 µM.
With `CCCCc1cccc(-n2c([C@H](C)Nc3ncnc(N)c3C#Cc3ccc(F)cn3)nc3cccc(Cl)c3c2=O)c1` [Compound 57a, (S)-2-(1-((6-amino-5-((5-fluoropyridin-2-yl)ethynyl)pyrimidin-4-yl)amino)ethyl)-3-(3-butylphenyl)-5-chloroquinazolin-4(3H)-one], the IC50 against PI3Kα (bound given in uM) was > 1 µM; on PI3Kδ it was < 100 nM; on PI3Kγ (bound given in uM) it was > 1 µM; against PI3Kβ (bound given in uM), > 1 µM.
Turning to `C[C@H](Nc1ncnc(N)c1C#Cc1ccc(F)cn1)c1nc2cccc(Cl)c2c(=O)n1-c1cccc(CNS(C)(=O)=O)c1` [Compound 130a, (S)—N-(3-(2-(1-((6-amino-5-((5-fluoropyridin-2-yl)ethynyl)pyrimidin-4-yl)amino)ethyl)-5-chloro-4-oxoquinazolin-3(4H)-yl)benzyl)methanesulfonamide], the IC50 against PI3Kα (bound given in uM) was > 1 µM; against PI3Kδ, < 100 nM; on PI3Kγ (bound given in uM), > 1 µM; at PI3Kβ (bound given in uM), > 1 µM.
Take `C[C@H](Nc1ncnc(N)c1C#Cc1ccc(F)cn1)c1nc2c(F)ccc(F)c2c(=O)n1-c1cc(F)cc(F)c1` [Compound 1a, (S)-2-(1-((6-amino-5-((5-fluoropyridin-2-yl)ethynyl)pyrimidin-4-yl)amino)ethyl)-3-(3,5-difluorophenyl)-5,8-difluoroquinazolin-4(3H)-one]: the IC50 on PI3Kα (bound given in uM) is > 1 µM; at PI3Kδ, < 100 nM; on PI3Kγ (bound given in uM), > 1 µM; on PI3Kβ (bound given in uM), > 1 µM.
In the case of `C[C@H](Nc1ncnc(N)c1C#Cc1cnccn1)c1nc2c(F)cccc2c(=O)n1-c1cc(F)cc(F)c1` [Compound 100a, (S)-2-(1-((6-amino-5-(pyrazin-2-ylethynyl)pyrimidin-4-yl)amino)ethyl)-3-(3,5-difluorophenyl)-8-fluoroquinazolin-4(3H)-one], the IC50 against PI3Kα (bound given in uM) was > 1 µM; on PI3Kδ, < 100 nM; at PI3Kγ (bound given in uM), > 1 µM; against PI3Kβ (bound given in uM) it was > 1 µM.
In the case of `C[C@H](Nc1ncnc(N)c1C#Cc1ccc(F)cn1)c1nc2ccc(F)cc2c(=O)n1-c1cccc(C#N)c1` [Compound 94a, (S)-3-(2-(1-((6-amino-5-((5-fluoropyridin-2-yl)ethynyl)pyrimidin-4-yl)amino)ethyl)-6-fluoro-4-oxoquinazolin-3(4H)-yl)benzonitrile], the IC50 on PI3Kα (bound given in uM) was > 1 µM; at PI3Kδ, < 100 nM; against PI3Kγ (bound given in uM), > 1 µM; on PI3Kβ (bound given in uM) it was > 1 µM.
As to `C[C@H](Nc1ncnc(N)c1C#Cc1ccccc1)c1nc2cccc(F)c2c(=O)n1-c1cccc(C#N)c1` [Compound 110a, (S)-3-(2-(1-((6-amino-5-(phenylethynyl)pyrimidin-4-yl)amino)ethyl)-5-fluoro-4-oxoquinazolin-3(4H)-yl)benzonitrile], the concentration for half-maximal inhibition (IC50) on PI3Kα (bound given in uM) was > 1 µM; against PI3Kδ it was < 100 nM; at PI3Kγ (bound given in uM), > 1 µM; at PI3Kβ (bound given in uM), > 1 µM.
As to `C[C@H](O)C#Cc1c(N)ncnc1N[C@@H](C)c1nc2cccc(Cl)c2c(=O)n1-c1ccccc1` [Compound 19b, 2-((S)-1-(6-amino-5-((S)-3-hydroxybut-1-ynyl)pyrimidin-4-ylamino)ethyl)-5-chloro-3-phenylquinazolin-4(3H)-one], the IC50 on PI3Kα (bound given in uM) is > 1 µM; against PI3Kδ it was < 100 nM; against PI3Kγ (bound given in uM), > 1 µM; against PI3Kβ (bound given in uM), > 1 µM.
`C[C@H](Nc1ncnc(N)c1C#Cc1ccc(N)cn1)c1nc2cccc(Cl)c2c(=O)n1-c1ccccc1` [Compound 35a, (S)-2-(1-(6-amino-5-((5-aminopyridin-2-yl)ethynyl)pyrimidin-4-ylamino)ethyl)-5-chloro-3-phenylquinazolin-4(3H)-one]: the IC50 was < 0.1 µM on PI3Kα (bound given in nM), < 100 nM against PI3Kδ, < 0.1 µM on PI3Kγ (bound given in nM) and < 0.1 µM at PI3Kβ (bound given in nM).
